Measurements as given in ChEMBL document CHEMBL1201862, “PubChem BioAssay data set” (2004).
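A five-concentration, 48-hour dose response in 96-well plates underlies each endpoint, interpolated linearly between surrounding concentrations. At the GI50, growth is halved.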 Calls of active or inactive are those of the source. No stated cut-off is given here; in the data, active = GI50 up to about 1.1 µM and inactive = higher.

Columns and labels:
Test in all cases: DTP human tumour cell line panel, 48 h
A498 = tested on: A498
SK-MEL-28 = tested on: SK-MEL-28
SK-OV-3 = tested on: SK-OV-3
U-251 = tested on: U-251
NCI/ADR-RES = tested on: NCI/ADR-RES
MOLT-4 = tested on: MOLT-4
DMS-114 = tested on: DMS-114
HCT-15 = tested on: HCT-15
SW-620 = tested on: SW-620
OVCAR-3 = tested on: OVCAR-3
KM12 = tested on: KM12
NCI-H522 = tested on: NCI-H522
SK-MEL-5 = tested on: SK-MEL-5
KM-20L2 = tested on: KM-20L2
T47D = tested on: T47D
MDA-N = tested on: MDA-N
MDA-MB-435 = tested on: MDA-MB-435
ACHN = tested on: ACHN
TK-10 = tested on: TK-10
BT-549 = tested on: BT-549

SMILES	GI50 (A498)	GI50 (SK-MEL-28)	GI50 (SK-OV-3)	GI50 (U-251)	GI50 (NCI/ADR-RES)	GI50 (MOLT-4)	GI50 (DMS-114)	GI50 (HCT-15)	GI50 (SW-620)	GI50 (OVCAR-3)	GI50 (KM12)	GI50 (NCI-H522)	GI50 (SK-MEL-5)	GI50 (KM-20L2)	GI50 (T47D)	GI50 (MDA-N)	GI50 (MDA-MB-435)	GI50 (ACHN)	GI50 (TK-10)	GI50 (BT-549)
C[C@@]12CC[C@H]3[C@@H]4CCC(=O)N[C@@]4(C)CC[C@@H]3[C@@]1(C)CC[C@H](OC(=O)Cc1ccc(N(CCCl)CCCl)cc1)C2	18.7 µM (inactive)	18.4 µM (inactive)	14.1 µM (inactive)	15 µM (inactive)	18.3 µM (inactive)	10.1 µM (inactive)	15 µM (inactive)	17.6 µM	18.2 µM (inactive)	17.9 µM (inactive)	22.7 µM (inactive)	17.7 µM (inactive)	13.7 µM (inactive)	18.2 µM (inactive)	–	–	–	–	–	–
CCCCCCCCCCCC1CCCC(C)N1 (stereo not drawn)	51.5 µM (inactive)	76.6 µM (inactive)	75.2 µM (inactive)	59.3 µM (inactive)	72.4 µM (inactive)	15.9 µM (inactive)	56.2 µM (inactive)	38.5 µM	58.3 µM (inactive)	72.9 µM (inactive)	30.9 µM (inactive)	35.9 µM (inactive)	36.4 µM (inactive)	29 µM (inactive)	–	–	–	–	–	–
CNC(=O)/C(=C/c1ccc(OC)cc1)c1cc(OC)c(OC)c(OC)c1	3.51 µM (inactive)	2.77 µM (inactive)	1.6 µM (inactive)	2.81 µM (inactive)	1.98 µM (inactive)	2.33 µM (inactive)	2.3 µM (inactive)	0.743 µM	0.802 µM (active)	0.641 µM (active)	0.598 µM (active)	0.735 µM (active)	0.593 µM (active)	1.28 µM (inactive)	> 100 µM (inactive)	0.206 µM (active)	0.281 µM (active)	8.65 µM (inactive)	> 44.1 µM (inactive)	50.8 µM (inactive)
